{
  "source": "patent US20140171918A1",
  "about": "“USE OF A NOVEL SU[…]-FREE […] TO DELIVER TE[…] H[…]” (Bioject, Inc., priority 2012, published 2014)",
  "key": {"[1]": {"experiment": "Pharmacokinetic evaluation using testosterone levels after needle-free (Zetajet) subcutaneous self-injection", "format": "in vivo, human", "source_text": "The goal of the study is to determine if a needle-free injector can consistently deliver frequent administrations (daily or three times weekly) of testosterone in a safe and effective manner. To answer this specific question, the study was designed to determine the efficacy (defined as testosterone serum levels, wetness, pain, and clinical questionnaire) of the combined product (cross labeled) of needle-free injection of testosterone cypionate hypogonadal men. This includes both objective (testosterone free and total levels) and subjective (pain and clinical questionnaire).\nOn Jan. 26, 2013, IRBS approved a modification of the CP-445 study. Due to a clear efficacy and patient acceptance at day 30, an extension of the study was requested to follow the fourteen subject's testosterone levels at a less frequent dosing interval and increased dosage. There was no deviation to the protocol as originally designed for day 0-30. Nor was there any deviation to the conduct of the study to day 120. This modification allowed following subjects out to day 120 on a Monday, Wednesday, Friday dosing of 50 mg of testosterone cypionate. Only T levels at day 60 and 120 were assessed."}, "hypogonadal men [2]": {"test_system": "hypogonadal men", "experiment": "Visual/verbal analog pain scale after needle-free injection", "description": "Each subject was given thorough instruction on performing self needle-free injections with the Zetaj et. […] Pharmacokinetic evaluation using testosterone levels were obtained at specified intervals. Secondary endpoints, both objective and subjective, included E2 levels, pain score diaries, and AMS scores obtained before and after one month of treatment. A dose confirmation strategy was conducted to achieve likelihood of valid dose.\nFrom day 60-90, all subjects were verified to have cottonseed vehicle in the commercially available formulation via Watson Pharmaceutical."}, "hypogonadal men [3]": {"test_system": "hypogonadal men", "experiment": "Aging Male Score (AMS) questionnaire before and after treatment", "format": "in vivo, human", "source_text": "AMS scoring was based on a rating of symptom severity ranging from no symptoms with the lowest score of 1 to severe symptoms with a […]."}, "hypogonadal men [4]": {"test_system": "hypogonadal men", "experiment": "Adverse events, injection site reactions and wetness after needle-free injection", "format": "in vivo, human", "source_text": "Of the 14 patients 9 recorded symptoms of redness, 5 symptoms of bruising and one an induration. None of these reactions required medical follow up or dissuaded any patient from discontinuing treatment. See section on Preference for additional data on patient preference and comparison of needle-Free injection methods to needle and syringe. FIG. 5 depicts post injection site reactions as a percentage of the total number of injections for 14 patients over a 30 day period.\nWetness at the injection site is believed to be attributed to moisture on the tip of the syringe prior to the injection per recommended technique. Wetness with visible moisture flow at the site of the injection is thought to result from improper injection technique and a lack of fluid pressure in the nozzle because of the technique. Results for wetness varied across all patients. FIG. 7 depicts cumulative wetness results by category as a percentage of total injections."}},
  "data": [
    {"smiles": "C[C@]12CC[C@H]3[C@@H](CCC4=CC(=O)CC[C@@]43C)[C@@H]1CC[C@@H]2OC(=O)CCC1CCCC1", "note": "[testosterone cypionate]", "values": [
      {"measurement": "course of free and total testosterone levels", "setting": "[1]; 25 mg daily Zetajet injection, 6 hours to day 30", "result": "consistently rose from 6 hours to day 30"},
      {"measurement": "average testosterone level of the men with supraphysiologic levels (above 975.0 ng/dl)", "setting": "[1]; 25 mg daily Zetajet injection, day 30, four men", "result": 1203, "unit": "ng/dl"},
      {"measurement": "increase of free testosterone levels", "setting": "[1]; 25 mg daily, from 8.76 ng/dl to 37.5 ng/dl", "result": "over four fold increase"},
      {"measurement": "average total testosterone levels of QODWO dosing lower than daily injections", "setting": "[1]; QODWO 50 mg vs daily 25 mg", "result": 35, "unit": "%"},
      {"measurement": "increase in testosterone levels", "setting": "[1]; QODWO dosing at 50 mg", "result": 3, "unit": "fold"},
      {"measurement": "supraphysiologic levels of testosterone", "setting": "[1]; QODWO dosing at 50 mg", "result": "no men had supraphysiologic levels"},
      {"measurement": "men with normal testosterone levels", "setting": "[1]; QODWO dosing at 50 mg, men who completed the 120 day study extension", "result": "11 out of 11"},
      {"measurement": "average free testosterone level", "setting": "[1]; after 25 mg daily injection, baseline average 8.76 ng/dl", "result": 37.5, "unit": "ng/dL"},
      {"measurement": "men with normal testosterone levels (primary endpoint)", "setting": "[1]; at two weeks, 25 mg daily", "result": "13/14"},
      {"measurement": "increase in average testosterone levels from baseline", "setting": "[1]; daily dosing regimen of 25 mg a day", "result": "over four fold increase"},
      {"measurement": "average testosterone level after correction to the normal range", "setting": "[1]; three formerly supraphysiologic subjects continued on QODWO regimen (50 mg), extended study", "result": 519, "unit": "ng/dL"},
      {"measurement": "verbal analog pain score, average", "setting": "hypogonadal men [2]; five minutes after injection, scale 0-4, 25 mg daily needle-free injection", "result": 0.54},
      {"measurement": "visual analog pain score, average", "setting": "hypogonadal men [2]; five minutes after injection, scale 0-10, 25 mg daily needle-free injection in the abdomen", "result": 0.4},
      {"measurement": "verbal analog pain score", "setting": "hypogonadal men [2]; thirty minutes after injection, scale 0-4, 4 most painful", "result": 0.26},
      {"measurement": "visual analog pain score", "setting": "hypogonadal men [2]; thirty minutes after injection, scale 0-10, 10 most painful", "result": 0.14},
      {"measurement": "average AMS score after treatment", "setting": "hypogonadal men [3]; after one month of 25 mg daily, baseline average 50 points, thirteen of fourteen men", "result": 25, "unit": "points"},
      {"measurement": "average reduction in bothersome hypogonadal symptoms (AMS score)", "setting": "hypogonadal men [3]; after one month of treatment vs before", "result": 50, "unit": "%"},
      {"measurement": "allergic response or major bruising", "setting": "hypogonadal men [4]; 100 mg/ml and 200 mg/ml commercially available formulations", "result": "No allergic response or major bruising"},
      {"measurement": "share of injections resulting in minor redness and bruising", "setting": "hypogonadal men [4]; 14 patients over 30 days", "result": "a quarter"},
      {"measurement": "severe adverse events", "setting": "hypogonadal men [4]; entire study (to day 120)", "result": "No severe adverse events"},
      {"measurement": "tolerability / safety in words", "setting": "hypogonadal men [4]; needle-free injection in hypogonadal men", "result": "well tolerated"},
      {"measurement": "patients who recorded an induration", "setting": "hypogonadal men [4]; of the 14 patients, 30 days", "result": "one"},
      {"measurement": "patients who recorded symptoms of bruising", "setting": "hypogonadal men [4]; of the 14 patients, 30 days", "result": 5},
      {"measurement": "patients who recorded symptoms of redness", "setting": "hypogonadal men [4]; of the 14 patients, 30 days", "result": 9}
    ]}
  ]
}
